These compounds were tested against recombinant human MGAT2 (Homo sapiens (Human), UniProt Q3SYC2) (assay: Measurement of human MGAT2 inhibitory activity). Conditions: read-out: IC50 (concentration exhibiting 50% enzyme inhibition), Table 52.
Type: biochemical
Procedure: A full-length human MGAT2 gene to which a Flag-tag had been added at the N-terminal was inserted into pFastBac (from Invitrogen). A recombinant baculovirus was produced in accordance with the protocol for a Bac-to-Bac baculovirus expression system (produced by Invitrogen), and Sf-9 cells were infected therewith. The cells were collected and sonicated, and then the membrane fraction was collected through centrifugation. Western blotting analysis with an anti-Flag antibody was performed for the membrane fraction to confirm expression, and the membrane fraction was used as a recombinant human MGAT2 enzyme solution.
Solutions of the compounds of the present invention in DMSO were each aliquoted into 0.2-μL portions in a 384-well polystyrene microplate produced by Corning Incorporated, and 5 μL of an enzyme solution prepared with an assay buffer (100 mmol/L phosphate buffer (pH 7.4) containing 2 mmol/L DTT) and 5 μL of a substrate solution (100 mmol/L phosphate buffer (pH 7.4), 30 μmol/L 2-Oleoylglycerol, 10 μmol/L Oleoyl-CoA) were added thereto, and the resultant was stirred and centrifuged, and incubated in a moist chamber at room temperature for 1 hour. After enzymatic reaction, 50 μL of a quenching solution (containing 0.2 μmol/L Diolein-d5, 0.4% formic acid, and 50% isopropanol) containing Internal Standard (IS) was added to terminate the reaction, and the resultant was sealed in a plate produced by Shimadzu GLC Ltd., and then stirred and centrifuged, and measurement was performed by using an electrospray ionization method with a RapidFire360 and Agilent 6550 Q-TOF mass spectrometer. Diolein as a reaction product (P) of 2-Oleoylglycerol as the substrate and an ammonium adduct ion of the IS were detected, and the peak intensity ratio, P/IS, was calculated from the peak heights to evaluate the inhibitory activity. Inhibitory activities with/without addition of enzyme were defined as Control (+)/Control (−), respectively, and the respective % inhibitions were defined as 0% inhibition and 100% inhibition. The inhibitory activity was calculated from formula below with TIBCO Spotfire (produced by TIBCO Software Inc.): Inhibitory activity (%)=[1−{Sample−Control(−)}/{Control(+)−Control(−)}]*100 where Sample indicates a peak intensity ratio: P/IS, when the compound of the present invention was added.

Sequence of recombinant human MGAT2 (Q3SYC2 whole entry): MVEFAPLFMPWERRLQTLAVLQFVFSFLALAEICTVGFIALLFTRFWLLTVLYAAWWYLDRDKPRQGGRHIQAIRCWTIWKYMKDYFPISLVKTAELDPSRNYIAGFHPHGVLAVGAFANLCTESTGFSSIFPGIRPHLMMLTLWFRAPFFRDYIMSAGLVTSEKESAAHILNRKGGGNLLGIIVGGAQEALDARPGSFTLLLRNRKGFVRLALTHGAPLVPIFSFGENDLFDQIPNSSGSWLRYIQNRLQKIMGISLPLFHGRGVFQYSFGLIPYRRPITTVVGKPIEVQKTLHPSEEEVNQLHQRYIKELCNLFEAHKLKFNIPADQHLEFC

SMILES | IC50 [nM]
O=C1N[C@@]2(CCc3cc(OCC(F)(F)F)ccc32)Cc2nn(CCC3CC3)c(C(=O)NS(=O)(=O)Cc3ccccc3)c21 [Compound I-119] | 150
CC(C)S(=O)(=O)NC(=O)c1c2c(nn1CCC1CC1)C[C@]1(CCc3cc(OCC(F)(F)F)ccc31)NC2=O [Compound I-117] | 51
O=C(NCc1c2c(nn1CCC1CC1)C[C@]1(CCc3cc(OCC(F)(F)F)ccc31)NC2=O)c1cocn1 [Compound I-154] | 530
O=C(NCc1c2c(nn1CCC1CC1)C[C@]1(CCc3cc(OCC(F)(F)F)ccc31)NC2=O)c1cnco1 [Compound I-159] | 600
N#CC1(C(=O)NCc2c3c(nn2CCC2CC2)C[C@]2(CCc4cc(OCC(F)(F)F)ccc42)NC3=O)CC1 [Compound I-153] | 240
Cn1cc(CC(=O)Nc2c3c(nn2CCC2CC2)C[C@]2(CCc4cc(OCCCC(F)(F)F)ccc42)NC3=O)cn1 [Compound I-30] | 175
CS(=O)(=O)CC(=O)Nc1c2c(nn1-c1ccc(F)cn1)C[C@]1(CCc3cc(OCC(F)(F)F)ccc31)NC2=O [Compound I-203] | 2.6
CS(=O)(=O)CC(=O)Nc1c2c(nn1CC1CCCO1)C[C@]1(CCc3cc(OCCCC(F)(F)F)ccc31)NC2=O (some centres unmarked) [Compound I-56] | 25
Cn1ccc(C(=O)Nc2c3c(nn2CCC2CC2)C[C@]2(CCc4cc(OCC(F)(F)F)ccc42)NC3=O)n1 [Compound I-232] | 270
CS(=O)(=O)CC(=O)Nc1c2c(nn1CCCC(F)(F)F)C[C@@]1(CCc3cc(OCC(F)(F)F)cc(F)c31)NC2=O [Compound I-136] | 4.1
CS(=O)(=O)CC(=O)Nc1c2c(nn1CCC1CC1)C[C@]1(CCc3cc(OCC(F)(F)F)cc(F)c31)NC2=O [Compound I-94] | 3.7
CC(=O)Nc1c2c(nn1CCC1CC1)C[C@]1(CCc3cc(OCCCC(F)(F)F)ccc31)NC2=O [Compound I-4] | 330
O=C1N[C@@]2(CCc3cc(OCC(F)(F)F)ccc32)Cc2nn(CCC3CC3)c(NC(=O)c3onc4ccccc34)c21 [Compound I-177] | 610
Cn1nccc1C(=O)Nc1c2c(nn1CCC1CC1)C[C@]1(CCc3cc(OCC(F)(F)F)ccc31)NC2=O [Compound I-223] | 140
O=C(Nc1nn(CCC2CC2)c2c1C(=O)N[C@@]1(CCc3cc(OCCCC(F)(F)F)ccc31)C2)c1ccno1 [Compound I-1] | 540
CCCc1cccc(-n2nc3c(c2NC(=O)CS(C)(=O)=O)C(=O)N[C@@]2(CCc4cc(OCC(F)(F)F)ccc42)C3)c1 [Compound I-239] | 380
CS(=O)(=O)CC(=O)Nc1c2c(nn1-c1ccc3c(c1)CCC3)C[C@]1(CCc3cc(OCC(F)(F)F)ccc31)NC2=O [Compound I-246] | 24
CS(=O)(=O)CC(=O)Nc1c2c(nn1-c1ccc(OC(F)(F)F)cc1)C[C@]1(CCc3cc(OCCCC(F)(F)F)ccc31)NC2=O [Compound I-33] | 14.7
CS(=O)(=O)CC(=O)Nc1c2c(nn1CCOCC(F)F)C[C@]1(CCc3cc(OCCCC(F)(F)F)ccc31)NC2=O [Compound I-53] | 13
CCS(=O)(=O)NC(=O)c1c2c(nn1CCC1CC1)C[C@]1(CCc3cc(OCC(F)(F)F)ccc31)NC2=O [Compound I-120] | 46
CS(=O)(=O)CC(=O)Nc1c2c(nn1CCC1CC1)C[C@]1(CCc3cc(N4CC(F)(F)C4)ccc31)NC2=O [Compound I-204] | 11.3
O=C(Nc1c2c(nn1CCC1CC1)C[C@]1(CCc3cc(OCCCC(F)(F)F)ccc31)NC2=O)c1ccc(F)cc1 [Compound I-16] | 150
Cc1ccc(-n2nc3c(c2NC(=O)CS(C)(=O)=O)C(=O)N[C@@]2(CCc4cc(OCC(F)(F)F)ccc42)C3)cc1 [Compound I-97] | 6.9
CS(=O)(=O)CC(=O)Nc1c2c(nn1CCC1CC1)C[C@]1(CCc3cc(CN4CC(F)(F)C4)ccc31)NC2=O [Compound I-281] | 72
O=C(Nc1c2c(nn1CCC1CC1)C[C@]1(CCc3cc(OCC(F)(F)F)ccc31)NC2=O)c1cncnc1 [Compound I-216] | 35
Cc1ccc(-n2nc3c(c2NC(=O)CS(C)(=O)=O)C(=O)N[C@@]2(CCc4cc(OCC(F)(F)F)ccc42)C3)nn1 [Compound I-263] | 4.7
O=C(NCc1c2c(nn1CCC1CC1)C[C@]1(CCc3cc(OCC(F)(F)F)ccc31)NC2=O)c1ccc(O)cc1 [Compound I-241] | 380
CS(=O)(=O)CC(=O)Nc1c2c(nn1Cc1ccon1)C[C@]1(CCc3cc(OCC(F)(F)F)ccc31)NC2=O [Compound I-260] | 490

Same assay, conditions: read-out: IC50 (concentration exhibiting 50% enzyme inhibition), Table 53

SMILES | IC50 [nM]
Cc1cc(-n2nc3c(c2C(=O)NCC#N)C(=O)N[C@@]2(CCc4cc(OCC(F)(F)F)ccc42)C3)no1 [II-251] | 10.1
CS(=O)(=O)CC(=O)Nc1c2c(nn1-c1ccc(C3CC3)nn1)C[C@]1(CCc3cc(OCCCC(F)(F)F)ccc31)NC2=O [II-259] | 0.439
CS(=O)(=O)CC(=O)Nc1c2c(nn1CCC1CC1)C[C@@]1(CCc3cc(OCC(F)F)ccc31)NC2=O [II-77] | 5.5
CS(=O)(=O)CC(=O)Nc1c2c(nn1-c1ccc(C#N)cn1)C[C@]1(CCc3cc(Cl)ccc31)NC2=O [II-75] | 3.69
CS(=O)(=O)CC(=O)Nc1c2c(nn1CCC1CC1)C[C@@]1(NC2=O)c2ccc(OCC(F)(F)F)cc2CC1(F)F [II-92] | 44.3
N#Cc1ccc(-n2nc3c(c2NC(=O)C2CCS(=O)(=O)C2)C(=O)N[C@@]2(CCc4cc(OCC(F)(F)F)ccc42)C3)nc1 (some centres unmarked) [II-91] | 2.79
CS(=O)(=O)CC(=O)Nc1c2c(nn1-c1ccc(C#N)cn1)CC1(CN(c3nc(C(F)(F)F)cs3)C1)NC2=O [II-78] | 45
CS(=O)(=O)CC(=O)Nc1c2c(nn1-c1ccc(F)c(F)c1)C[C@]1(CCOc3cc(OCC(F)(F)F)ccc31)NC2=O [II-67] | 2.64
CC1(C)CN(c2ccc3c(c2)CC[C@@]32Cc3nn(CCC4CC4)c(NC(=O)CS(C)(=O)=O)c3C(=O)N2)C1 [II-37] | 12
CS(=O)(=O)CC(=O)Nc1c2c(nn1CCCOC(F)(F)F)C[C@]1(CCc3cc(CCC(F)(F)F)ccc31)NC2=O [II-283] | < 1
N#Cc1ccc(-n2nc3c(c2C(=O)NC2(C#N)CCCCC2)C(=O)N[C@@]2(CCc4cc(OCC(F)(F)F)ccc42)C3)nc1 [II-113] | 8.23
Cc1ccc(-n2nc3c(c2NC(=O)CS(C)(=O)=O)C(=O)N[C@@]2(CCc4cc(OCC(F)(F)F)ccc42)C3)cc1F [II-136] | 7.42
CS(=O)(=O)CC(=O)Nc1c2c(nn1CCC1CC1)C[C@]1(CCc3c1ccc(OCC(F)(F)F)c3F)NC2=O [II-166] | 20.8
CS(=O)(=O)CC(=O)Nc1c2c(nn1CCCCC(F)(F)F)C[C@]1(CCOc3cc(OCC(F)(F)F)ccc31)NC2=O [II-25] | 7
CS(=O)(=O)CC(=O)Nc1c2c(nn1-c1ccc(C#N)cn1)C[C@]1(CCc3cc(C(F)(F)F)ccc31)NC2=O [II-142] | 4.03
CS(=O)(=O)CC(=O)Nc1c2c(nn1CCC1CC1)C[C@@]1(CCc3cc(N4CC(C(F)F)C4)ccc31)NC2=O [II-40] | 22
Cc1cc(-n2nc3c(c2C(=O)NCCS(N)(=O)=O)C(=O)N[C@@]2(CCc4cc(OCC(F)(F)F)ccc42)C3)no1 [II-254] | 45.7
N#Cc1ccc(-n2nc3c(c2C(=O)NCCO)C(=O)N[C@@]2(CCc4cc(OCC(F)(F)F)ccc42)C3)nc1 [II-180] | 58.5
CS(=O)(=O)CC(=O)Nc1c2c(nn1-c1ccc(C3CC3)cn1)C[C@]1(CCOc3cc(OCC(F)(F)F)ccc31)NC2=O [II-296] | < 1
N#Cc1ccc(-n2nc3c(c2C(=O)NC2(C#N)CC2)C(=O)N[C@@]2(CCc4cc(OCC(F)(F)F)ccc42)C3)nc1 [II-110] | 30.4
Cc1cccc(-n2nc3c(c2NC(=O)CS(C)(=O)=O)C(=O)N[C@@]2(CCOc4cc(OCC(F)(F)F)ccc42)C3)c1 [II-5] | 4.6
Cc1ccc(-n2nc3c(c2NC(=O)CS(C)(=O)=O)C(=O)N[C@@]2(CCOc4cc(Cl)ccc42)C3)nc1 [II-147] | 4.92
CS(=O)(=O)CC(=O)Nc1c2c(nn1-c1ccc(F)c(F)c1)C[C@]1(CCOc3cc(Cl)ccc31)NC2=O [II-250] | 3.91
Cc1ccc(-n2nc3c(c2NC(=O)CS(C)(=O)=O)C(=O)N[C@@]2(CCc4cc(CCC(F)(F)F)ccc42)C3)nn1 [II-304] | 1.39
Cc1ccc(-n2nc3c(c2C(=O)NCC#N)C(=O)N[C@@]2(CCOc4cc(OCC(F)(F)F)ccc42)C3)nc1 [II-228] | 37
CC(C)(O)C1CN(c2ccc3c(c2)CC[C@@]32Cc3nn(CCC4CC4)c(NC(=O)CS(C)(=O)=O)c3C(=O)N2)C1 [II-63] | 300
CC(C)OC1CN(c2ccc3c(c2)CC[C@@]32Cc3nn(CCC4CC4)c(NC(=O)CS(C)(=O)=O)c3C(=O)N2)C1 [II-41] | 40
CS(=O)(=O)CC(=O)Nc1c2c(nn1-c1ccc(C(F)F)nn1)C[C@]1(CCc3cc(OCCCC(F)(F)F)ccc31)NC2=O [II-258] | 0.285
